Reference: US12162888B2, “Carboxamides as ubiquitin-specific protease inhibitors” (Valo Early Discovery, Inc., priority 2018, dated 2024)

What follows are molecules tested against T1, USP28 (His-tagged USP28-FL-mammalian) (Homo sapiens, UniProt Q96RU2) (assay: Ubiquitin-Rhodamine 110 Assay for USP28 Activity, Example A-1(a)). Details: Ubiquitin-Rhodamine 110 assay, read-out: USP28 A-1(a) IC50 range.
T1 construct: Expression of USP28 (1-1077)-TEV-6*His (pTT5 vector) was carried out in Expi293f cells; made in house; host or cells: Expi293F cells (pTT5 vector)
T1 sequence (Q96RU2 1-1077): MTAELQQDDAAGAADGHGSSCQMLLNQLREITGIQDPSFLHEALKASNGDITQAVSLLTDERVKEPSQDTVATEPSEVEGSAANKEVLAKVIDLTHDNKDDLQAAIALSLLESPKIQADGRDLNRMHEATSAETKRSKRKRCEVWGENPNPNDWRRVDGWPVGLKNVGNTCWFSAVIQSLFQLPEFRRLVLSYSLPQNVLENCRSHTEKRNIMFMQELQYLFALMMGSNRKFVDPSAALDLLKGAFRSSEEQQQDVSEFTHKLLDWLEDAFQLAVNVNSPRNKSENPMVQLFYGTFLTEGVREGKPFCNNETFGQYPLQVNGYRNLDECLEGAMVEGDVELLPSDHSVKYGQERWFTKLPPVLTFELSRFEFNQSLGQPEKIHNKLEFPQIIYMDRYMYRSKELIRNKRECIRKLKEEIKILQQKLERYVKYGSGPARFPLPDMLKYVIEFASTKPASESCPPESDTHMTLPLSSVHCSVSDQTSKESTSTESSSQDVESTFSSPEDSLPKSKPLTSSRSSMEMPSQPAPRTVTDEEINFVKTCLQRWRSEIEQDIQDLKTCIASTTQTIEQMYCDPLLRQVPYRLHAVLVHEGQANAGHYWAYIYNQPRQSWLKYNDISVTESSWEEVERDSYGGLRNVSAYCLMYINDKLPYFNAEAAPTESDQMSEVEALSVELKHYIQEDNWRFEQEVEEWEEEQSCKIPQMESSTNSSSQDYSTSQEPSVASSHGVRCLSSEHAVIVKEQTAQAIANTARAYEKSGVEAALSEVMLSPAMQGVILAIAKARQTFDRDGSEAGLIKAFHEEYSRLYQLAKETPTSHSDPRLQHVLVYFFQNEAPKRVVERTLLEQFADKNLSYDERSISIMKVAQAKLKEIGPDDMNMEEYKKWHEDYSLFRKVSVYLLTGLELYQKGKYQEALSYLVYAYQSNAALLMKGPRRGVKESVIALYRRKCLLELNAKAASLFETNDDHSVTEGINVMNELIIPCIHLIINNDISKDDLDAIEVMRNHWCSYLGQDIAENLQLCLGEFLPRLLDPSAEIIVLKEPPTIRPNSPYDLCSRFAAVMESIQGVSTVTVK
Assay type: biochemical
Method in brief: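 IC50s were fitted with a 4-parameter logistic to percent inhibition relative to no-enzyme and DMSO controls, using Rhodamine 110 fluorescence (485/535 nm) released from 25 nM Ub-Rh110. The enzyme was Expi293F-expressed USP28-FL-His at […], preincubated 30 min with compound (10-point, 25 μM top) in Tris pH 8.0 buffer containing BGG and Triton X-100. Substrate turnover ran 45 min at room temperature and was stopped with 10 mM citric acid.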

SMILES | IC50 [nM]
CO[C@H]1CN(c2ccc3c(c2)OC[C@H](NC(=O)c2sc4nc(C)sc4c2N)C3)CC1N (stereo partly drawn) [Example 118, 6-amino-N-[(3R)-7-[(3,4S)-3-amino-4-methoxypyrrolidin-1-yl]-3,4-dihydro-2H-1-benzopyran-3-yl]-2-methylthieno[2,3-d][1,3]thiazole-5-carboxamide] | 50 to 200
Cc1ccc2c(N)c(C(=O)N[C@H]3COc4cc(N5C[C@H](CF)[C@H](N)C5)ccc4C3)sc2n1 (single isomer, unassigned) [Example 424] | 1 to 50
Cc1ccc2c(N)c(C(=O)N[C@H]3CCc4nc(N5C[C@H](N)[C@@]6(CCOC6)C5)ccc4C3)sc2n1 [Example 437, 3-amino-N-[(6S)-2-[(5R,9R)-9-amino-2-oxa-7-azaspiro[4.4]nonan-7-yl]-5,6,7,8-tetrahydroquinolin-6-yl]-6-methylthieno[2,3-b]pyridine-2-carboxamide] | 50 to 200
Cc1cnc2c(N)c(C(=O)N[C@H]3CCc4cc(N5C[C@H]6C[C@@H]5CN6)ccc4C3)sc2n1 (single isomer, unassigned) [Example 11-31] | 50 to 200
Cc1nc2sc(C(=O)N[C@H]3CCc4c(C#N)c(N5CCNCC5)cc(F)c4C3)c(N)c2s1 (single isomer, unassigned) [Example 14-14] | 1 to 50
Cc1ccc2c(N)c(C(=O)N[C@@H]3CCc4nc(N5C[C@@H](CF)[C@@H](N)C5)ncc4C3)sc2n1 [Example 445, 3-amino-N-[(6R)-2-[(3R,4R)-3-amino-4-(fluoromethyl)pyrrolidin-1-yl]-5,6,7,8-tetrahydroquinazolin-6-yl]-6-methylthieno[2,3-b]pyridine-2-carboxamide] | 200 to 2000
Cc1ccc2c(N)c(C(=O)N[C@H]3COc4cc(N5CCNCC5)ccc4[C@H]3C)sc2n1 (single isomer, unassigned) [Example 11-15] | > 2000
Cc1cnc2c(N)c(C(=O)N[C@@H]3CCc4c(C#N)c(N5CC6CCC(C5)N6)cc(F)c4C3)sc2n1 (single isomer, unassigned) [Example 14-20] | 200 to 2000
Cc1nc2sc(C(=O)N[C@H]3CCc4cc(N5CCNCC5)ccc4C3)c(N)c2s1 (single isomer, unassigned) [Example 11-33] | 200 to 2000
Cc1ccc2c(N)c(C(=O)N[C@H]3COc4cc(N5C[C@H]6CC[C@@H]5CN6)ncc4C3)sc2n1 [Example 76, N-((R)-7-((1R,4R)-2,5-diazabicyclo[2.2.2]octan-2-yl)-3,4-dihydro-2H-pyrano[3,2-c]pyridin-3-yl)-3-amino-6-methylthieno[2,3-b]pyridine-2-carboxamide] | 1 to 50
CO[C@H]1CN(c2cc(F)c3c(c2C#N)CC[C@@H](NC(=O)c2sc4nc(C)ccc4c2N)C3)C[C@@H]1N (single isomer, unassigned) [Example 14-24] | 200 to 2000
Cc1cnc2c(N)c(C(=O)N[C@H]3CCc4c(C#N)c(N5CC6CCC(C5)N6)cc(F)c4C3)sc2n1 (single isomer, unassigned) [Example 14-19] | 1 to 50
Cc1ccc2c(N)c(C(=O)N[C@@H]3CCc4c(C#N)c(N5CCNCC5)cc(F)c4C3)sc2n1 (single isomer, unassigned) [Example 14-9] | 200 to 2000
Cc1ccc2c(N)c(C(=O)N[C@@H]3CCc4c(C#N)c(N5CC6CCC(C5)N6)cc(F)c4C3)sc2n1 (single isomer, unassigned) [Example 14-18] | 50 to 200
CO[C@H]1CN(c2cc(F)c3c(c2C#N)CC[C@H](NC(=O)c2sc4nc(C)ccc4c2N)C3)C[C@@H]1N (single isomer, unassigned) [Example 14-23] | 1 to 50
CN[C@H]1CCN(c2ccc3c(c2)CC[C@@H](NC(=O)c2sc4nc(C)cnc4c2N)C3)C1 (single isomer, unassigned) [Example 11-26] | > 2000
CN[C@@H]1CN(c2ccc3c(n2)CC[C@H](NC(=O)c2sc4nc(C)ccc4c2N)C3)C[C@@H]1CF [Example 442, 3-amino-N-[(6S)-2-[(3S,4S)-3-(fluoromethyl)-4-(methylamino)pyrrolidin-1-yl]-5,6,7,8-tetrahydroquinolin-6-yl]-6-methylthieno[2,3-b]pyridine-2-carboxamide] | 50 to 200
Cc1ccc2c(N)c(C(=O)N[C@@H]3COc4cc(N5CCNCC5)ccc4[C@@H]3C)sc2n1 (single isomer, unassigned) [Example 11-18] | 200 to 2000
CN[C@H]1CN(c2ccc3c(n2)CC[C@H](NC(=O)c2sc4nc(C)ccc4c2N)C3)C[C@H]1CF [Example 441, 3-amino-N-[(6S)-2-[(3R,4R)-3-(fluoromethyl)-4-(methylamino)pyrrolidin-1-yl]-5,6,7,8-tetrahydroquinolin-6-yl]-6-methylthieno[2,3-b]pyridine-2-carboxamide] | 50 to 200
CN[C@H]1CCN(c2ccc3c(c2)CC[C@H](NC(=O)c2sc4nc(C)cnc4c2N)C3)C1 (single isomer, unassigned) [Example 11-25] | 50 to 200
Cc1nc2sc(C(=O)N[C@@H]3CCc4cc(N5CCNCC5)ccc4C3)c(N)c2s1 (single isomer, unassigned) [Example 11-34] | 50 to 200
Cc1cnc2c(N)c(C(=O)N[C@@H]3CCc4cc(N5C[C@@H]6C[C@H]5CN6)ccc4C3)sc2n1 (single isomer, unassigned) [Example 11-30] | 200 to 2000

Same assay, conditions: biochemical IC50 range, Ubiquitin-Rhodamine 110 assay, read-out: USP28 A-1(a)

SMILES | IC50 [nM]
CN[C@@H]1CN(c2ccc3c(c2)OC[C@H](NC(=O)c2sc4nc(C)ccc4c2N)C3)C[C@H]1CF [Example 663, 3-amino-N-[(3R)-7-[(3R,4S)-3-(fluoromethyl)-4-(methylamino)pyrrolidin-1-yl]-3,4-dihydro-2H-1-benzopyran-3-yl]-6-methylthieno[2,3-b]pyridine-2-carboxamide] | 1 to 50
Cc1ccc2c(N)c(C(=O)N[C@H]3COc4cc(N5C[C@H](N)[C@](C)(CF)C5)ccc4C3)sc2n1 [Example 658, 3-amino-N-[(3R)-7-[(3R,4R)-4-amino-3-(fluoromethyl)-3-methylpyrrolidin-1-yl]-3,4-dihydro-2H-1-benzopyran-3-yl]-6-methylthieno[2,3-b]pyridine-2-carboxamide] | 1 to 50
Cc1ccc2c(N)c(C(=O)N[C@H]3COc4cc(N5C[C@@H]6CCNC[C@@H]65)cc(F)c4C3)sc2n1 [Example 665, 3-amino-N-[(3R)-7-[(1R,6S)-3,8-diazabicyclo[4.2.0]octan-8-yl]-5-fluoro-3,4-dihydro-2H-1-benzopyran-3-yl]-6-methylthieno[2,3-b]pyridine-2-carboxamide] | 1 to 50
CO[C@H]1CN(c2ccc3c(c2)CC[C@H](NC(=O)c2sc4nc(C)ccc4c2N)C3)C[C@H]1N [Example 144, 3-amino-N-[(2S)-6-[(3R,4S)-3-amino-4-methoxypyrrolidin-1-yl]-1,2,3,4-tetrahydronaphthalen-2-yl]-6-methylthieno[2,3-b]pyridine-2-carboxamide] | 50 to 200
COC1CN(c2ccc3c(c2)CC[C@H](NC(=O)c2sc4nc(C)cnc4c2N)C3)CC1N (stereo in doubt) [Example 130, 7-amino-N-[(2S)-6-[(3S,4S)-3-amino-4-methoxypyrrolidin-1-yl]-1,2,3,4-tetrahydronaphthalen-2-yl]-3-methylthieno[2,3-b]pyrazine-6-carboxamide] | 50 to 200
Cc1ccc2c(N)c(C(=O)N[C@H]3COc4cc(N5C[C@@H](N)[C@@](C)(CF)C5)ccc4C3)sc2n1 [Example 660, 3-amino-N-[(3R)-7-[(3S,4S)-4-amino-3-(fluoromethyl)-3-methylpyrrolidin-1-yl]-3,4-dihydro-2H-1-benzopyran-3-yl]-6-methylthieno[2,3-b]pyridine-2-carboxamide] | 1 to 50
O=C(N[C@H]1COc2cc(N3CCNCC3)ccc2C1)c1ccc(NCc2cccc(Cl)c2Cl)nc1 [Example 699, 6-{[(2,3-dichlorophenyl)methyl]amino}-N-[(3R)-7-(piperazin-1-yl)-3,4-dihydro-2H-1-benzopyran-3-yl]pyridine-3-carboxamide] | 1 to 50
